Entries after “also recorded” stand apart in the source; their conditions may differ. Like-named read-outs stand apart in the source and are kept apart here.
Assays:
[1] = target: T1, recombinant human ATase (Homo sapiens, UniProt P16455); assay: In vitro ATase inactivation assay (incubation with inactivators and ATase assay); type: biochemical; conditions: for ATase inactivation in vitro, result in words: recombinant human ATase, standard conditions
T1 construct: made in house
T1 sequence (P16455 1-207): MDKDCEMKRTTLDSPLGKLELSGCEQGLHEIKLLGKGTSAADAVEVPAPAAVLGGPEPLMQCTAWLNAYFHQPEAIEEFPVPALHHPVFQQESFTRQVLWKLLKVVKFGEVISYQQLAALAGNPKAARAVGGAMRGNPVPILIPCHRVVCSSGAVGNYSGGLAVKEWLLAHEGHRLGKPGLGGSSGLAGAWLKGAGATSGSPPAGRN
Protocol: The cDNA cloning and overexpression of the human ATase has been reported previously^23. Purification of the recombinant proteins was achieved either by affinity chromatography through a DNA-cellulose column as described by Wilkinson et al.,^25, 26 or by DEAE-cellulose ion-exchange chromatography. For the latter, the ATase protein was partially purified by ammonium sulphate precipitation (30-60%) and dialysed against 10 mM Tris-HCl pH 7.5, 1 mM DTT, 2 mM EDTA, 10% glycerol, before loading on a DEAE-cellulose column. The ATase was then eluted with a 0-0.1 M NaCl gradient.
Compounds to be tested were dissolved in DMSO to a final concentration of 10 mM and diluted just before use in buffer I containing 1 mg/ml bovine serum albumin (IBSA). Recombinant ATase was diluted in IBSA and titrated in order that the reaction be conducted under ATase, and not substrate, limiting conditions. […] Following acid hydrolysis of the DNA as previously described^21 the [^3 H]-methylated protein was recovered and quantitated by liquid scintillation counting. Samples were typically assayed in duplicate and experiments repeated several times. I50 is the concentration of inactivator required to produce a 50% reduction in ATase activity.

[2] = test system: Raji cells; assay: Sensitization of Raji cells to BCNU (XTT assay); type: cell-based, human; conditions: 1.0 μM inactivator (FIG. 2)
Protocol: (§1) Following a 2 hour incubation at 37° C., medium containing either increasing doses of BCNU, temozolomide or equivalent vehicle was added and the cells allowed to grow for 6 days. At this time XTT solution was added and the cells incubated for a further 4 hours at 37° C. The resulting red/orange formazan reaction product was quantified by measuring absorption at 450 nm on a microtitre platereader.

[3] = target: T2, ATase in human melanoma xenografts (Homo sapiens, UniProt P16455); assay: ATase activity in human melanoma (A375) xenografts grown in nude mice after inactivator; type: in vivo; conditions: single i.p. dose 30 or 60 mg/kg (FIG. 17)
T2 construct: A375M cells are human melanoma cells from which the xenografts described below were established; endogenous in cells; host or cells: A375M xenograft grown in nude mice
T2 sequence (P16455 1-207): T1 sequence (P16455 1-207)
Protocol: Cells (10^6) in 100 μl of PBS were injected subcutaneously into the right-hand flank of 8-10 week old nu/nu athymic mice. These cells were allowed to develop into a tumour for 3-4 weeks for passaging into experimental animals. Tumour blocks measuring 2 mm×2 mm×2 mm were implanted subcutaneously on the right hand flank. These animals were ready for use in inactivator experiments in 7-10 days.
ATase substrate DNA was prepared by incubation of purified calf thymes DNA with N-[^3 H]-methyl-N-nitrosuourea (18.7 Ci/mmole, Amersham International). Cell or tissue extracts (see 4.4) were incubated with [^3 H]-methylated-DNA substrate (100 μl containing 6.7 μg of DNA and 100 fmol of O^6 -[^3 H]methylguanine) at 37° C. for 60 mins. Following acid hydrolysis of the DNA as precviously described^21the [^3 H]-methylated protein was recovered and quantitated by liquid scintillation counting.
Mice were treated with the inactivator as a suspension in corn oil by intraperitoneal injection (i.p.) or by oral gavage (p.o.) 60 mins prior to temozolomide (100 mg/kg in 20% DMSO in phosphate-buffered saline) which was always given by intraperitoneal injection: this schedule was repeated on days 1 to 5 inclusive. Controls received vehicle alone, inactivator alone or temozolomide alone.

[4] = test system: human bone marrow granulocyte macrophage colony forming cells; assay: Sensitization of bone marrow cells to temozolomide (GM-CFC assay); type: cell-based
Text: For the granulocyte/macrophage colony-forming cell (GM-CFC) assay primary human bone marrow samples were obtained from patients undergoing cardiothoracic surgery. […] The colonies represented precursor cells of the granulocyte/macrophage lineage (huGM-CFC). Survival was expressed as a % of the number of colonies at zero dose temozolomide.

[5] = Toxicity of inactivators in combination with BCNU in DBA2 mice; type: in vivo, mouse; conditions: mouse, in vivo, ip, 60 mg/kg, single i.p. dose, read-out: % SURVIVAL AFTER 14 DAYS
Text: All agents were given as a single i.p. dose

[6] = test system: Raji cells; assay: Sensitization of Raji cells to temozolomide (XTT assay); type: cell-based, human; conditions: 0.1-5.0 μM inactivator (FIGS. 3, 4)
Protocol: as §1

[7] = test system: nude mice; assay: Xenograft study: survival of nude mice given inactivator plus BCNU; conditions: in combination with BCNU (FIGS. 9-13)
Text: BALB-C derived athymic male mice (nu/nu athymic) weighing between 25-35 g were obtained from the in-house breeding colony of the Paterson Institute for Cancer Research, Christie Hospital NHS Trust, Wilmslow Road, Manchester M20 9BX, England (ASU mice). The animals were housed in a sterile environment until required for experiments. In one experiment mice were obtained from Harlan-Olac, Harlan UK Limited, Shaw's Farm, Blackthorn, Bicester, Oxon. OX6 OPT, England (OLAC mice).

[8] = Table 9, pure recombinant ATase in vitro, read-out: I50 (μm)

Structure (SMILES) | ATase inactivation in vitro, result in words [1] | IC50 [1, 8] | other results
CC(Oc1nc(N)nc2[nH]cnc12)c1ccccc1 (racemic) [B.4214, DL-0^6 -(α-methylbenzyl)guanine, reference compound] | reduce greatly the inactivating activity; also recorded: did not inactivate ATase up to the highest concentration used | – | –
CC(Oc1nc(N)nc2[nH]cnc12)c1cccs1 (racemic) [B.4217, DL-0^6 -(α-methylthenyl)guanine] | reduce greatly the inactivating activity; also recorded: did not inactivate ATase up to the highest concentration used | – | –
Nc1nc(OCc2ccsc2)c2nc[nH]c2n1 [B.4206, 0^6-(3-thienylmethyl)guanine] | somewhat more effective than BeG; also recorded: I50 values lower than that of BeG | – | –
Nc1nc(OCc2ccc3c(c2)OCO3)c2nc[nH]c2n1 [B.4212, 0^6 -piperonylguanine] | considerably better; also recorded: I50 values lower than that of BeG | – | –
Nc1nc(OCc2cc3ccccc3s2)c2nc[nH]c2n1 [B.4226, 0^6-(2-benzo[b]thienylmethyl)guanine] | I50 values lower than that of BeG | – | –
COc1ccccc1COc1nc(N)nc2[nH]cnc12 [B.4231, O^6-(2-methoxybenzyl)guanine, reference compound] | – | – | IC50 ([1]; Table 4, 1 hour incubation with inactivator at 37° C., read-out: I50): 60000 nM
Nc1nc(OCc2cc3ccccc3o2)c2nc[nH]c2n1 [B.4266, 0^6-(2-benzofuranylmethyl)guanine] | I50 values lower than that of BeG | – | –
Nc1nc(OCc2ccc(Br)s2)c2nc[nH]c2n1 [B.4269, 0^6-(5-bromothenyl)guanine] | more efficient than the unsubstituted thenyl derivative B.4205; also recorded: I50 values lower than that of BeG | – | –
N#Cc1ccc(COc2nc(N)nc3[nH]cnc23)o1 [B.4273, 0^6-(5-cyanofurfuryl)guanine] | I50 values lower than that of BeG | – | –
Nc1nc(OCc2cncs2)c2nc[nH]c2n1 [B.4275, 0^6-(5-thiazolylmethyl)guanine] | I50 values lower than that of BeG | – | –
Nc1nc(OCc2ccc(Cl)s2)c2nc[nH]c2n1 [B.4281, O^6-(5-chlorothenyl)guanine] | – | 4 nM | –
N#Cc1ccc(COc2nc(N)nc3[nH]cnc23)s1 [B.4283, O^6-(5-cyanothenyl)guanine] | – | 5 nM | –
C[S+]([O-])c1ccc(COc2nc(N)nc3[nH]cnc23)s1 (stereo not drawn) [B.4294, O^6-(5-methylsulphinylthenyl)guanine] | – | 30 nM | –
Nc1nc(OCc2cc(Cl)cs2)c2nc[nH]c2n1 [B.4298, O^6-(4-chlorothenyl)guanine] | – | 8 nM | –
COc1csc(COc2nc(N)nc3[nH]cnc23)c1 [B.4300, O^6-(4-methoxythenyl)guanine] | – | 16.5 nM | –
Nc1nc(OCc2csc(Br)c2)c2nc[nH]c2n1 [B.4313, O^6-(5-bromo-3-thienylmethyl)guanine] | – | 6.5 nM | –
N#Cc1csc(COc2nc(N)nc3[nH]cnc23)c1 [B.4317, O^6-(4-cyanothenyl)guanine] | more efficient inactivator in vitro than its 5-cyano analogue B.4283 or the unsubstituted thenyl derivative B.4205 | 2.8 nM | –
Nc1nc(OCc2cc(Cl)c(Cl)s2)c2nc[nH]c2n1 [B.4318, O^6-(4,5-dichlorothenyl)guanine] | – | 15 nM | –
Nc1nc(OCc2ccnc(Cl)c2)c2nc[nH]c2n1 [B.4321, O^6-(2-chloro-4-picolyl)guanine] | – | 40 nM | –
Nc1nc(OCc2ccc(Br)o2)c2nc[nH]c2n1 [B.4336, O^6-(5-bromofurfuryl)guanine] | – | 20 nM | –
Nc1nc(OCc2ccccc2)c2nc[nH]c2n1 [O^6 -benzylguanine, reference compound] | – | – | sensitizing Raji cells to growth inhibitory effects of BCNU, in words [2]: equally effective; inactivation of ATase in human melanoma xenografts, in words [3]: inactivated; sensitization of GM-CFC to cytotoxic effects of temozolomide, in words ([4]; four different patient samples, 10 μM (FIG. 23)): sensitized; sensitization of GM-CFCs to toxic effects of temozolomide, in words ([4]; three human bone marrow samples (FIG. 14)): sensitised; survival at 336 h ([5]; inactivator 60 mg/kg + 10 mg/kg BCNU): 50%; survival at 336 h ([5]; inactivator 60 mg/kg + 15 mg/kg BCNU (footnote *)): 0%; survival at 336 h ([5]; inactivator 60 mg/kg + 20 mg/kg BCNU): 33%; dose response of Raji sensitization to temozolomide, in words [6]: clear dose response; death of treated animals [7]: up to 70%
